Results as given in US9593108B2, “Compounds and methods for antiviral treatment” (PTC Therapeutics, Inc., priority 2009, dated 2017).

Key:
[1] = tested on: HCV replicon RNA (GenBank Accession No. AJ242654); experiment: HCV Replicon Assay (replicon RNA reduction and/or Fluc reporter signal); type: cell-based, Hepatitis C virus; conditions: Hepatitis C virus, 72 h, replicon-containing cells cultured with test compound for up to 3 days
Method in brief: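 Bicistronic replicon-containing cells cultured with compound for up to 3 days, with interferon as positive control. Inhibition quantified by replicon RNA reduction and/or Fluc reporter signal; IC50 values generally derived from replicon RNA reduction.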

SMILES	IC50 [1]	melting point
CC1(NS(=O)(=O)c2ccc(-c3c(C#N)c4cc(C5CC5)cnc4n3C3CCC3)cc2)CC1 [Cpd 127, 4-(3-cyano-1-cyclobutyl-5-cyclopropyl-1H-pyrrolo[2,3-b]pyridin-2-yl)-N-(1-methylcyclopropyl)benzenesulfonamide]	< 500 nM	152 to 161 °C
CC1(NS(=O)(=O)c2ccc(-c3c(C#N)c4cc(C5CC5)cnc4n3C3CCC3)nc2)CC1 [Cpd 128, 6-(3-cyano-1-cyclobutyl-5-cyclopropyl-1H-pyrrolo[2,3-b]pyridin-2-yl)-N-(1-methylcyclopropyl)pyridine-3-sulfonamide]	< 500 nM	178 to 185 °C
CC1(NS(=O)(=O)c2cnc(-c3c(C#N)c4cc(C5CC5)cnc4n3C3CCC3)nc2)CC1 [Cpd 129, 2-(3-cyano-1-cyclobutyl-5-cyclopropyl-1H-pyrrolo[2,3-b]pyridin-2-yl)-N-(1-methylcyclopropyl)pyrimidine-5-sulfonamide]	< 500 nM	161 to 169 °C
N#Cc1c(-c2ccc(S(=O)(=O)NC(CF)CF)cc2)n(C2CCC2)c2ncc(C3CC3)cc12 [Cpd 130, 4-(3-cyano-1-cyclobutyl-5-cyclopropyl-1H-pyrrolo[2,3-b]pyridin-2-yl)-N-(1,3-difluoropropan-2-yl)benzenesulfonamide]	< 500 nM	225 to 230 °C
N#Cc1c(-c2ncc(S(=O)(=O)NC(CF)CF)cn2)n(C2CCC2)c2ncc(C3CC3)cc12 [Cpd 132, 2-(3-cyano-1-cyclobutyl-5-cyclopropyl-1H-pyrrolo[2,3-b]pyridin-2-yl)-N-(1,3-difluoropropan-2-yl)pyrimidine-5-sulfonamide]	< 500 nM	189 to 197 °C
N#Cc1c(-c2ccc(S(=O)(=O)NC3CC3)cn2)n(C2CCC2)c2ncc(C3CC3)cc12 [Cpd 133, 6-(3-cyano-1-cyclobutyl-5-cyclopropyl-1H-pyrrolo[2,3-b]pyridin-2-yl)-N-cyclopropylpyridine-3-sulfonamide]	< 500 nM	169 to 174 °C
N#Cc1c(-c2ccc(S(=O)(=O)NC3CCC3)cn2)n(C2CCC2)c2ncc(C3CC3)cc12 [Cpd 134, 6-(3-cyano-1-cyclobutyl-5-cyclopropyl-1H-pyrrolo[2,3-b]pyridin-2-yl)-N-cyclobutylpyridine-3-sulfonamide]	< 500 nM	189 to 197 °C
CC(C)NS(=O)(=O)c1cnc(-c2c(C#N)c3cc(C4CC4)cnc3n2C2CCC2)nc1 [Cpd 136, 2-(3-cyano-1-cyclobutyl-5-cyclopropyl-1H-pyrrolo[2,3-b]pyridin-2-yl)-N-(propan-2-yl)pyrimidine-5-sulfonamide]	< 500 nM	187 to 195 °C
Cc1ccc2c(C#N)c(-c3ncc(S(=O)(=O)N[C@@H](C)C(F)(F)F)cn3)n(C3CCC3)c2n1 [Cpd 137, 2-(3-cyano-1-cyclobutyl-6-methyl-1H-pyrrolo[2,3-b]pyridin-2-yl)-N-[(2S)-1,1,1-trifluoropropan-2-yl]pyrimidine-5-sulfonamide]	< 500 nM	207 to 212 °C
Cc1ccc2c(C#N)c(-c3ncc(S(=O)(=O)N[C@H](C)C(F)(F)F)cn3)n(C3CCC3)c2n1 [Cpd 138, 2-(3-cyano-1-cyclobutyl-6-methyl-1H-pyrrolo[2,3-b]pyridin-2-yl)-N-[(2R)-1,1,1-trifluoropropan-2-yl]pyrimidine-5-sulfonamide]	500 to 2000 nM	205 to 209 °C
Cc1ccc2c(C#N)c(-c3ccc(S(=O)(=O)NC4(C(F)(F)F)CC4)cc3)n(C3CCC3)c2n1 [Cpd 140, 4-(3-cyano-1-cyclobutyl-6-methyl-1H-pyrrolo[2,3-b]pyridin-2-yl)-N-[1-(trifluoromethyl)cyclopropyl]benzenesulfonamide]	500 to 2000 nM	205 to 212 °C
Cc1ccc2c(C#N)c(-c3ccc(S(=O)(=O)NC(C)(C)C)cc3)n(C3CCC3)c2n1 [Cpd 141, N-tert-butyl-4-(3-cyano-1-cyclobutyl-6-methyl-1H-pyrrolo[2,3-b]pyridin-2-yl)benzenesulfonamide]	500 to 2000 nM	194 to 200 °C
Cc1ccc2c(C#N)c(-c3ccc(S(=O)(=O)NC(C)(C)C)cn3)n(C3CCC3)c2n1 [Cpd 142, N-tert-butyl-6-(3-cyano-1-cyclobutyl-6-methyl-1H-pyrrolo[2,3-b]pyridin-2-yl)pyridine-3-sulfonamide]	< 500 nM	181 to 187 °C
Cc1ccc2c(C#N)c(-c3ccc(S(=O)(=O)NC4(C)CC4)cc3)n(C3CCC3)c2n1 [Cpd 143, 4-(3-cyano-1-cyclobutyl-6-methyl-1H-pyrrolo[2,3-b]pyridin-2-yl)-N-(1-methylcyclopropyl)benzenesulfonamide]	< 500 nM	200 to 207 °C
Cc1ccc2c(C#N)c(-c3ncc(S(=O)(=O)NC4(C)CC4)cn3)n(C3CCC3)c2n1 [Cpd 144, 2-(3-cyano-1-cyclobutyl-6-methyl-1H-pyrrolo[2,3-b]pyridin-2-yl)-N-(1-methylcyclopropyl)pyrimidine-5-sulfonamide]	< 500 nM	224 to 232 °C
Cc1ccc2c(C#N)c(-c3ccc(S(=O)(=O)NC(CF)CF)cc3)n(C3CCC3)c2n1 [Cpd 145, 4-(3-cyano-1-cyclobutyl-6-methyl-1H-pyrrolo[2,3-b]pyridin-2-yl)-N-(1,3-difluoropropan-2-yl)benzenesulfonamide]	< 500 nM	182 to 193 °C
Cc1ccc2c(C#N)c(-c3ccc(S(=O)(=O)NC(CF)CF)cn3)n(C3CCC3)c2n1 [Cpd 146, 6-(3-cyano-1-cyclobutyl-6-methyl-1H-pyrrolo[2,3-b]pyridin-2-yl)-N-(1,3-difluoropropan-2-yl)pyridine-3-sulfonamide]	< 500 nM	180 to 188 °C
Cc1ccc2c(C#N)c(-c3ncc(S(=O)(=O)NC(CF)CF)cn3)n(C3CCC3)c2n1 [Cpd 147, 2-(3-cyano-1-cyclobutyl-6-methyl-1H-pyrrolo[2,3-b]pyridin-2-yl)-N-(1,3-difluoropropan-2-yl)pyrimidine-5-sulfonamide]	< 500 nM	211 to 217 °C
Cc1ccc2c(C#N)c(-c3ccc(S(=O)(=O)NC4CCC4)cn3)n(C3CCC3)c2n1 [Cpd 148, 6-(3-cyano-1-cyclobutyl-6-methyl-1H-pyrrolo[2,3-b]pyridin-2-yl)-N-cyclobutylpyridine-3-sulfonamide]	< 500 nM	151 to 160 °C
C[C@H](NS(=O)(=O)c1ccc(-c2c(C#N)c3ccc(C4CC4)nc3n2C2CCC2)nc1)C(F)(F)F [Cpd 151, 6-(3-cyano-1-cyclobutyl-6-cyclopropyl-1H-pyrrolo[2,3-b]pyridin-2-yl)-N-[(2S)-1,1,1-trifluoropropan-2-yl]pyridine-3-sulfonamide]	< 500 nM	170 to 176 °C
C[C@@H](NS(=O)(=O)c1ccc(-c2c(C#N)c3ccc(C4CC4)nc3n2C2CCC2)nc1)C(F)(F)F [Cpd 152, 6-(3-cyano-1-cyclobutyl-6-cyclopropyl-1H-pyrrolo[2,3-b]pyridin-2-yl)-N-[(2R)-1,1,1-trifluoropropan-2-yl]pyridine-3-sulfonamide]	< 500 nM	170 to 176 °C
C[C@@H](NS(=O)(=O)c1cnc(-c2c(C#N)c3ccc(C4CC4)nc3n2C2CCC2)nc1)C(F)(F)F [Cpd 154, 2-(3-cyano-1-cyclobutyl-6-cyclopropyl-1H-pyrrolo[2,3-b]pyridin-2-yl)-N-[(2R)-1,1,1-trifluoropropan-2-yl]pyrimidine-5-sulfonamide]	< 500 nM	244 to 249 °C
CCc1cnc2c(c1)c(C#N)c(-c1ccc(S(=O)(=O)N[C@@H](C)C(F)(F)F)cc1)n2C1CCC1 [Cpd 155, 4-(3-cyano-1-cyclobutyl-5-ethyl-1H-pyrrolo[2,3-b]pyridin-2-yl)-N-[(2S)-1,1,1-trifluoropropan-2-yl]benzenesulfonamide]	< 500 nM	194 to 201 °C
CCc1cnc2c(c1)c(C#N)c(-c1ccc(S(=O)(=O)N[C@H](C)C(F)(F)F)cc1)n2C1CCC1 [Cpd 156, 4-(3-cyano-1-cyclobutyl-5-ethyl-1H-pyrrolo[2,3-b]pyridin-2-yl)-N-[(2R)-1,1,1-trifluoropropan-2-yl]benzenesulfonamide]	500 to 2000 nM	194 to 201 °C
C[C@H](NS(=O)(=O)c1ccc(-c2c(C#N)c3ccc(Cl)nc3n2C2CCC2)nc1)C(F)(F)F [Cpd 161, 6-(6-chloro-3-cyano-1-cyclobutyl-1H-pyrrolo[2,3-b]pyridin-2-yl)-N-[(2S)-1,1,1-trifluoropropan-2-yl]pyridine-3-sulfonamide]	< 500 nM	172 to 178 °C
C[C@@H](NS(=O)(=O)c1ccc(-c2c(C#N)c3ccc(Cl)nc3n2C2CCC2)nc1)C(F)(F)F [Cpd 162, 6-(6-chloro-3-cyano-1-cyclobutyl-1H-pyrrolo[2,3-b]pyridin-2-yl)-N-[(2R)-1,1,1-trifluoropropan-2-yl]pyridine-3-sulfonamide]	< 500 nM	172 to 178 °C
Cc1ncc2c(C#N)c(-c3ccc(S(=O)(=O)N[C@@H](C)C(F)(F)F)cn3)n(C3CCCC3)c2n1 [Cpd 163, 6-(5-cyano-7-cyclopentyl-2-methyl-7H-pyrrolo[2,3-d]pyrimidin-6-yl)-N-[(2S)-1,1,1-trifluoropropan-2-yl]pyridine-3-sulfonamide]	500 to 2000 nM	212 to 215 °C
Cc1ncc2c(C#N)c(-c3ccc(S(=O)(=O)N[C@@H](C)C(F)(F)F)cc3)n(C3CCCC3)c2n1 [Cpd 164, 4-(5-cyano-7-cyclopentyl-2-methyl-7H-pyrrolo[2,3-d]pyrimidin-6-yl)-N-[(2S)-1,1,1-trifluoropropan-2-yl]benzenesulfonamide]	500 to 2000 nM	202 to 204 °C
